Data as given in patent US11278682B2, “Device and method for aerosolized delivery of substance to a natural orifice of the body” (SIPNOSE LTD., priority 2014, dated 2022).
“Also recorded” adds a separate entry of the source.

Experiments:
[1] = system: New Zealand White female rabbits; assay: Nasal cavity irritation and general toxicity of repeated intra-nasal Midazolam
Protocol: Nasal cavity irritation and general toxicity were assessed for repeated intra-nasal applications of Midazolam to rabbits, using a SipNose intra-nasal delivery device. Six New Zealand White female rabbits were used, with the three experimental animals being given two 200 μL doses of Midazolam (5 mg/ml) per day, six hours apart. The three control animals were given four 200 μL doses of saline solution per day, at 3 hour intervals.
The daily dosing was repeated for 10 days, for 11 days' dosage in total. 24 hours after the last dosing, the animals were sacrificed.
The animals were observed once daily until study termination. Shortly before sacrifice, blood was taken for testing.
After sacrifice, gross pathology was performed, examining major tissue and organ systems. Organs (nasal cavity (including olfactory epithelium), nasopharynx, paranasal sinus, trachea, lungs, larynx, brain (olfactory bulbs and hippocampus), heart, olfactory nerve, optic nerve and lacrimal glands) of all animals were harvested and examined. Three cross sections of the skull were taken: (1) in the nose from rostral, (2) behind the incisor teeth and (3) caudal, including the olfactory epithelium labyrinth, as shown in FIG. 85.
Brains were dissected in the olfactory regions and the hippocampus. Lungs were evaluated in both right and left lobes. Tissues were trimmed, embedded in paraffin, sectioned at no more than 5 microns thickness, and stained with Hematoxylin & Eosin (H&E).
In order to alleviate the discomfort an animal might endure during intra-nasal administration, prior to placement the sipNose device, Lidocaine was applied locally in the nasal area.

Sprague-Dawley (SD) rats = assay: Safety and toxicity of intranasal Midazolam via SipNose device; assay type: in vivo, rat
Protocol: Safety and possible adverse effects (toxicity) were assessed the safety and toxicity including adverse effects of Midazolam following intranasal administration via SipNose dedicated device to Sprague-Dawley (SD) rats.
A total of 78 SD rats (39 female and 39 male) were utilized. The animals were divided into four groups of 3 or 12 female rats and 3 or 12 male rats. At each of the times 6 hrs, 24 hrs, 7 days, and 14 days, three males and three females were sacrificed.
The test material was a commercially available injectable Midazolam.
The day of dosing was Day 1 and termination days were Day 1 (6 hrs), Day 2 (24 hrs), Day 8 and Day 15.
Each test material or vehicle dose was administrated to three female and three male rats at each of the above times. The administration was performed intranasally (IN) via a SipNose device. The dose volume was 25-125 μl per naris (50-250 μl total per rat). Dosing was performed in an escalating fashion, each increase in dose depending on the outcome of the previous dose. The time between increasing doses was approximately half an hour.
Dosing was performed in a staggered fashion, each increase in dose pending on the outcome of the previous dose. The lag time between the increasing doses was approximately half an hour. The maximum dose was five times the clinical dose in order to determine a maximum tolerated dose.
The test material and vehicle were administered IN once via a SipNose device at a dose volume of 50-250 μl to non-fasting animals.
Animals were observed individually at least once during the first 30 minutes alter dosing and daily thereafter, for a total of 1, 7, or 14 days (according to time of sacrifice for histological observation). All observations were systematically recorded and individual records were maintained for each animal.
Body weight was monitored one day after the animals' arrival, prior to administration of the test material and twice a week thereafter (days 4, 8, 10 and 15) for a total of 5 times.
Clinical signs were observed daily, at least once during the first 30 min after dosing, periodically during the first 24 h, with special attention during the first 4 h, and once daily thereafter.
Animals were sacrificed by carbon dioxide asphyxiation and gross pathology was performed examining the major tissue and organ systems. All animals were subjected to gross necropsy.
The tissue samples from groups 1, 2, 3 and 4 (M+F) were embedded, sectioned and mounted on slides. The tissue sections were stained with Hematoxylin & Eosin (H&E).
Three cross sections of the skull and brain were taken: (1) in the nose from rostral area, (2) behind the incisor teeth and (3) in the caudal area including the olfactory epithelium labyrinth (FIG. 85). The brain was dissected in the olfactory regions, hippocampus, cerebellum and brain stem. The lungs were evaluated in both right and left lobes. The inflammatory status in the tissue samples were evaluated using the following parameters.
• Grade 0: No inflammation • Grade 1: Mild (few inflammatory cells, 10-20 per ×40 high-power field) • Grade 2: moderate (more inflammatory cells, 20-50 per ×40 high-power field), • Grade 3: severe (many inflammatory cells, more than 50 per ×40 high-power field).

[2] = Midazolam pharmacokinetic study, plasma and brain, SipNose vs IV; conditions: rats
Protocol: Concentration of Midazolam in the plasma and brain of rats were compared for intranasal administration via the SipNose delivery device and via IV administration. A standard drug formulation (Injectable Midazolam 5 mg/ml, Pfizer/Hospira brand) was used, with no reformulation or adaptation for nasal delivery. Two drug concentrations were used for the intranasal administration, 0.2 mg/kg (dashed line in FIGS. 91 and 92) and 0.6 mg/kg (dot-dash line in FIGS. 91 and 92), compared to the standard of care I/V administration of 0.6 mg/kg (solid line in FIGS. 91 and 92). Concentration was measured 10 times in the 12 hours of the study. For each measurement time, midazolam concentration was measured in the plasma and brain of five animals.

Cc1ncc2n1-c1ccc(Cl)cc1C(c1ccccc1F)=NC2 [Midazolam]
Amylase (blood chemistry) ([1]; Midazolam group): 240±13.1 IU/L
all relevant safety parameters (clinical observations, histopathology, ophthalmic examination, haematology, blood analysis) ([1]; Midazolam vs control): no differences were found between the control and study groups
blood coagulation parameters ([1]; Midazolam vs control group): No differences were detected
histopathology ([1]; either group): No major histopathological abnormalities were found
blood chemistry analysis, all results ([1]; repeated intra-nasal Midazolam): within the normal range for the blood of rabbits
blood hematology analysis ([1]; repeated intra-nasal Midazolam vs saline control): None of the parameters showed any difference between the control group and the study group
body weight during the study ([1]; two 200 μL doses of Midazolam (5 mg/ml) per day via SipNose, repeated daily): did not exhibit major changes in weight
finding in frontal nose space ([1]; two animals from the Midazolam group, attributed to device tip): very mild bleeding was detected in the frontal nose space
death of neurons in the brain (Sprague-Dawley (SD) rats; SD rats, Midazolam treated groups): No death of neurons was detected
adverse effects or histopathological findings in examined tissues (Sprague-Dawley (SD) rats; SD rats, both tested doses (clinical dose and five times clinical dose)): no adverse effects or histopathological findings; also recorded: no pathological abnormalities were found
very mild inflammation in most caudal cross section of the nose (Sprague-Dawley (SD) rats; SD rats, seen in saline and Midazolam groups, 12 out of 42 animals): most probably not drug-related
clinical signs (Sprague-Dawley (SD) rats; SD rats, single intranasal dose via SipNose, up to 14 days): No abnormal clinical signs were detected
weight gain vs control group (Sprague-Dawley (SD) rats; female rats, five times the clinical dose, days 10 and 15): statistically significant greater weight gain
body weight increase vs control group (Sprague-Dawley (SD) rats; male rats, clinical dose of Midazolam, at several times): statistically significant greater increase in weight
pharmacokinetic pattern ([2]; 0.6 mg/kg intranasal via SipNose): very similar to that of standard of care (I/V) administration
absorption into blood and brain ([2]; intranasal via SipNose (0.2 and 0.6 mg/kg) vs I/V 0.6 mg/kg): comparable to that seen for I/V administration
